The values below come from publication PMC11455950, “Effects of SZV-2649, a new multiple ion channel inhibitor mexiletine analogue” (Scientific Reports, 2024).

Where “and” joins values, the source holds several entries; their conditions need not be identical. Equal entries are not always repeated.

For series [1], the target named is T1, hERG (Kv11.1) potassium channel (Homo sapiens, UniProt Q12809).
T1 construct: host or cells: HEK293
Nature of the series: Automated planar patch-clamp, hERG current in HEK cells. Type of series: cell-based. An excerpt:
Inhibition of the hERG channel, the pore forming α-subunit of the native IKr cardiac potassium channel, is expected to prolong repolarization both in the atria and in the ventricles. The GIRK channel is the pore forming α-subunit of the acetylcholine-activated potassium channel and plays an important role in atrial electrophysiology. Its inhibition can be expected to decrease the acetylcholine-activated potassium current (IKACh), a current that plays an important role in the pathogenesis of AF. Therefore, the effects of SZV-2649 on the hERG and GIRK ion channels were studied by the planar patch-clamp technique in mammalian HEK cell lines stably expressing these channels.
The currents conducted by the hERG and GIRK channels were measured by using planar patch-clamp technology[,[47],[68] in the whole-cell configuration with a four-channel medium-throughput fully automated patch-clamp platform (Patchliner Quattro, Nanion Technologies GmbH, Munich, Germany) with integrated temperature control. Data acquisition and online analysis were performed with an EPC-10 Quadro patch-clamp amplifier (HEKA Elektronik Dr Schulze GmbH, Lambrecht/Pfalz, Germany), using PatchMaster 2.65 software (HEKA Elektronik Dr. Schulze GmbH). The pipetting protocols were controlled by PatchControlHT 1.09.30 software (Nanion Technologies GmbH). […]
In general terms: In patch-clamp work, channel activity is measured electrically.

Series [2] deals with conscious dogs. Nature of the series: Basic ECG parameters in conscious dogs. Type of series: in vivo, dog. How it is done:
The effects of SZV-2649 on the basic ECG parameters in conscious dogs were investigated. […] Beagle dogs of either sex weighing 12–14 kg were used for the experiments. ECG measurements were taken in conscious animals using the standard I-III leads. QTc was calculated using the Van de Water’s formula[61]. SZV-2649 (10 mg/kg) was applied by i.v. or oral administration.

For series [3], the system named is anesthetized dogs. The series can be described thus: Atrial fibrillation induced by carbachol infusion and burst stimulation in anesthetized dogs. It is filed as in vivo, dog. Also on record: key to AF converted to SR? / AF reinduced?: N, response not observed; Y, response observed. The procedure:
The effect of SZV-2649 was further investigated in carbachol-infused and programmed electrical stimulation-induced (i.e. 800/min atrial burst stimulation) acute atrial fibillation model in anesthetized dogs.
In the atrial fibrillation experiments, at least 5–6 dogs for control and test groups, (respectively) were used. Following 0.5 µg/kg sufentanyl premedication and […] i.v. pentobarbital anaesthesia induction, left thoracotomy was performed on all animals. Dogs were endotracheally intubated and mechanically ventilated (UGO Basile respirator; Biological Research Apparatus, Italy) Physiological parameters (non-invasive blood pressure, SpO2, ECG) were continuously monitored during surgery and experiments (InnoCare-VET Patient Care Monitor; Budapest, Hungary). The ECGs were recorded using precordial leads and were digitized and stored on a computer for off-line analysis using National Instruments data acquisition hardware (National Instruments, Austin, Texas, USA) and SPEL Advanced Haemosys software (version 3.2, MDE Heidelberg GmbH, Germany). Under pentobarbital anaesthesia, two pacemaker electrodes (Biotronik Solia S 60; Biotronik Ltd., Hungary) were positioned epicardially into the left atrial appendage and apex of the left ventricle, respectively, and electrodes were connected to pacemakers (Effecta D; Biotronik Hungary Ltd., Hungary). Pacemakers were programmed in VVI mode using Biotronik IC: 4808 A-Renamic programmer to prevent the potentially bradycardic effect of carbachol leading to hemodynamic instability. Atrial and ventricular thresholds were measured before AF induction in all animals. Ventricular and atrial pacing were set to three times the measured threshold. AF inducibility were tested in both groups using a control set (25 times) of 10-second-long rapid atrial bursts (800 beats/min, at threefold threshold). Following 25 atrial burst stimuli, 2 × 2 µg/kg loading dose of intravenous carbachol was administered followed by an 8 µg/kg/h maintenance dose. Atrial fibrillation was induced using 10-second-long atrial burst stimuli in the presence of carbachol in both groups of dogs. […] In these experiments, we investigated whether AF was converted to SR by the test drug(s). All intravenous infusions were performed using a programmable infusion pump (Terufusion TE-3; Terumo Europe, Leuven, Belgium).

[4] abbreviates: intravenous 10 mg/kg, 30 min after administration, n = 6.
Setting [5] is: per os 10 mg/kg, 1 h after administration, n = 7.
Where [6] appears, read: i.v. 10 mg/kg, individual dogs, carbachol + burst, 10 mg/kg.

T1 sequence (Q12809 whole entry): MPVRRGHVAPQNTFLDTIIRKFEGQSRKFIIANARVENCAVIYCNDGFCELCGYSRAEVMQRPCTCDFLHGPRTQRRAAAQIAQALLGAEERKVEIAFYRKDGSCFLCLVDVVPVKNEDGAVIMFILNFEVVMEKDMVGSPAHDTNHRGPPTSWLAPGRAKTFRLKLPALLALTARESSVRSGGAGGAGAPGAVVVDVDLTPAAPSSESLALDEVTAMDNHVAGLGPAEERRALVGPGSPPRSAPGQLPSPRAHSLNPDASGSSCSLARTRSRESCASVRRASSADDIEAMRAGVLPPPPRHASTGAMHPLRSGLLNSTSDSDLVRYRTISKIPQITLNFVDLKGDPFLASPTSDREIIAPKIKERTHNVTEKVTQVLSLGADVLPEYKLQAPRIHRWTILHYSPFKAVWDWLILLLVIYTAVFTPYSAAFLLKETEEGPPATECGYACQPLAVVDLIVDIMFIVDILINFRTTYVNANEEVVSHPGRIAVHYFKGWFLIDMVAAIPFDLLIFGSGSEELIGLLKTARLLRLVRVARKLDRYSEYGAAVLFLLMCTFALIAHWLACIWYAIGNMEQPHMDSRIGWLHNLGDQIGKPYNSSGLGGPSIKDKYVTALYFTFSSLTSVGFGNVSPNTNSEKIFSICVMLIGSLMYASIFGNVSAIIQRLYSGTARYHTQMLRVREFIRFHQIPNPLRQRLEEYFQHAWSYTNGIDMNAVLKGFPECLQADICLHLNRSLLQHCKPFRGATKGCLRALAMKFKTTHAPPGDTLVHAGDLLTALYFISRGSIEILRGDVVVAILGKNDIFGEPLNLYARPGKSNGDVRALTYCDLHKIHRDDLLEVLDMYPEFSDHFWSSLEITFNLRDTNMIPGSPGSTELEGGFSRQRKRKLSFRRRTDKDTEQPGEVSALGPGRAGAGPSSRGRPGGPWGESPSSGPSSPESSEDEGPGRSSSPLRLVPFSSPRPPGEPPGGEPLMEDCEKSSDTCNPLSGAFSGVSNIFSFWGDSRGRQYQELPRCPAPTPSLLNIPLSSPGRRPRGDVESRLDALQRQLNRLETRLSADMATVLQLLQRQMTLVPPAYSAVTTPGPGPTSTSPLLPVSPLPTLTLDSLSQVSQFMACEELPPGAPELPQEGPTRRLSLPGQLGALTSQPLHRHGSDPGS

In the case of `CC(N)COc1c(I)cc(C#N)cc1I.Cl` (stereo not shown) [SZV-2649, 4-(2-aminopropoxy)-3,5-diiodobenzonitrile hydrochloride], the IC50 in series [1] (HEK cells (abstract)) is 0.342 µM. For the same molecule, the IC50 at 3 min in series [1] (human, HEK293 cells stably expressing hERG (Kv11.1), pH 7.4, printed in picture of Fig. 2b, read-out: Effect on hERG: EC50) is 0.342 µM. In series [2] (setting [4]), this molecule returned a PQ of 150.6 ± 15.8 ms, a QRS of 52.2 ± 3.2 ms, a QT of 234.5 ± 5.6 ms and an RR of 756.1 ± 29.4 ms. Further, in series [2] (intravenous 10 mg/kg, 30 min after administration, n = 6, Van de Water's formula), the QTC was 255.7 ± 6.3 ms. Also, in series [2] (setting [5]), the PQ was 119.8 ± 7.5 ms, the QRS was determined as 47.9 ± 2.4 ms, the QT is listed as 215.0 ± 7.5 ms and the RR was determined as 596.2 ± 44.0 ms. This molecule gave a QTC in series [2] (per os 10 mg/kg, 1 h after administration, n = 7, Van de Water's formula) of 250.1 ± 7.0 ms. In series [3] (i.v. 10 mg/kg, individual dogs, carbachol + burst), the “AF converted to SR?” value is recorded as “Y”. Besides, in series [3] (setting [6]), the “AF converted to SR? (time printed in cell)” value was 79 s and 175 s and 64 s and 286 s and 84 s and 194 s; the “AF reinduced (number of the 25 burst stimuli)” value is 0/25 and 1/25 and 2/25; the “AF reinduced?” value is “N and Y (2×)”. Also, in series [3] (i.v. 10 mg/kg, whole group), the “Atrial fibrillation reinduced, share of burst stimuli” value is on record as 2% and the “Times atrial fibrillation was reinduced by the 25 burst stimuli delivered in each animal” value came out at 3 times. Besides, the “Experimental animals in which atrial fibrillation was converted to sinus rhythm” value in series [3] (intravenous bolus 10 mg/kg) is 100%.
